From patent US20230287044A1, “NOVEL ANTIBACTERIAL PEPTIDE AND USE THEREOF” (priority 2020, published 2023)
In brackets after ≈: the same amount, converted by molar mass. Square brackets hold non-standard residues; d marks the D form. Peptide text beside a SMILES is read from it.

How the values were obtained:
[1] = test system: VRE (E. faecalis) ATCC 51575; type: cell-based, Enterococcus faecalis; conditions: ATCC 51575, 18 h
Method: (§1) The minimum growth inhibitory concentrations of the antibacterial peptides of the present invention weremeasured, and the results are shown in Table 3 below.
(§2) Specifically, the strains were grown in CAMHB until the midlog phase, and then diluted with PBS buffer to 1× 10^6 cfu/ml to prepare the bacterial solution, and the antibacterial peptide prepared in Example 1above was diluted with CAMHB to 80 µM, 40 µM, 20 µM, 10 µM, 5 µM, 2.5 µM, 1.25 µM and 0.63 µM, and then the bacterial solution was treated with the same volume.
(§3) The results are the average value of three independent experiments.

[2] = test system: MRAB (A. baumannii) ATCC BAA 1605; type: cell-based, Acinetobacter baumannii; conditions: ATCC BAA 1605, 18 h
Method: as §1, §2, §3

[3] = test system: MRPA (P. aeruginosa) CCARM 2180; type: cell-based, Pseudomonas aeruginosa; conditions: CCARM 2180, 18 h
Method: as §1, §2, §3

[4] = test system: MRSA (S. aureus) KCCM 40510; type: cell-based, Staphylococcus aureus; conditions: KCCM 40510, 18 h
Method: as §1, §2, §3

SMILES: CC(C)[C@@H](NC(=O)[C@@H](Cc1c[nH]c2ccccc12)NC(=O)[C@@H](CCCNC(=N)N)NC(=O)[C@H](N)CCCNC(=N)N)C(=O)N[C@H](Cc1c[nH]c2ccccc12)C(=O)N[C@@H](C(=O)N[C@@H](C(=O)N[C@H](Cc1c[nH]c2ccccc12)C(=O)N[C@H](CCCCN)C(N)=O)C(C)C)C(C)C [KSH56, rrwvwvvwk] (H-[dR][dR][dW][dV][dW][dV][dV][dW][dK]-NH2; N-terminus assumed)
- MIC VRE (E. faecalis) ATCC 51575 [1]: 1.25 µM (≈ 1.64 µg/mL)
- MIC MRAB (A. baumannii) ATCC BAA 1605 [2]: 1.25 µM (≈ 1.64 µg/mL)
- MIC MRPA (P. aeruginosa) CCARM 2180 [3]: 5 µM (≈ 6.57 µg/mL)
- MIC MRSA (S. aureus) KCCM 40510 [4]: 1.25 µM (≈ 1.64 µg/mL)

SMILES: CC(C)[C@@H](NC(=O)[C@@H](Cc1c[nH]c2ccccc12)NC(=O)[C@@H](CCCNC(=N)N)NC(=O)[C@@H](CCCNC(=N)N)NC(=O)[C@H](N)CCCNC(=N)N)C(=O)N[C@H](Cc1c[nH]c2ccccc12)C(=O)N[C@@H](C(=O)N[C@@H](C(=O)N[C@H](Cc1c[nH]c2ccccc12)C(=O)N[C@H](CCCCN)C(N)=O)C(C)C)C(C)C [KSH57, rrrwvwvvwk] (H-[dR][dR][dR][dW][dV][dW][dV][dV][dW][dK]-NH2; N-terminus assumed)
- MIC VRE (E. faecalis) ATCC 51575 [1]: 20 µM (≈ 29.4 µg/mL)
- MIC MRAB (A. baumannii) ATCC BAA 1605 [2]: 5 µM (≈ 7.35 µg/mL)
- MIC MRPA (P. aeruginosa) CCARM 2180 [3]: 20 µM (≈ 29.4 µg/mL)
- MIC MRSA (S. aureus) KCCM 40510 [4]: 20 µM (≈ 29.4 µg/mL)

SMILES: CC(C)[C@@H](NC(=O)[C@@H](Cc1c[nH]cn1)NC(=O)[C@@H](CCCNC(=N)N)NC(=O)[C@@H](CCCNC(=N)N)NC(=O)[C@H](N)CCCNC(=N)N)C(=O)N[C@H](Cc1c[nH]cn1)C(=O)N[C@@H](C(=O)N[C@@H](C(=O)N[C@H](Cc1c[nH]c2ccccc12)C(=O)N[C@H](CCCCN)C(N)=O)C(C)C)C(C)C [KSH58, rrrhvhvvwk] (H-[dR][dR][dR][dH][dV][dH][dV][dV][dW][dK]-NH2; N-terminus assumed)
- MIC VRE (E. faecalis) ATCC 51575 [1]: 10 µM (≈ 13.7 µg/mL)
- MIC MRAB (A. baumannii) ATCC BAA 1605 [2]: 5 µM (≈ 6.86 µg/mL)
- MIC MRPA (P. aeruginosa) CCARM 2180 [3]: 10 µM (≈ 13.7 µg/mL)
- MIC MRSA (S. aureus) KCCM 40510 [4]: 10 µM (≈ 13.7 µg/mL)

SMILES: CC[C@@H](C)[C@@H](NC(=O)[C@@H](Cc1c[nH]c2ccccc12)NC(=O)[C@H](NC(=O)[C@@H](Cc1c[nH]c2ccccc12)NC(=O)[C@@H](CCCNC(=N)N)NC(=O)[C@@H](CCCNC(=N)N)NC(=O)[C@H](N)CCCNC(=N)N)[C@H](C)CC)C(=O)N[C@H](CC(C)C)C(=O)N[C@H](Cc1c[nH]c2ccccc12)C(N)=O [KSH59, rrrwiwilw] (H-[dR][dR][dR][dW][dI][dW][dI][dL][dW]-NH2; N-terminus assumed)
- MIC VRE (E. faecalis) ATCC 51575 [1]: 0.63 µM (≈ 0.872 µg/mL)
- MIC MRAB (A. baumannii) ATCC BAA 1605 [2]: 1.25 µM (≈ 1.73 µg/mL)
- MIC MRPA (P. aeruginosa) CCARM 2180 [3]: 2.5 µM (≈ 3.46 µg/mL)
- MIC MRSA (S. aureus) KCCM 40510 [4]: 0.63 µM (≈ 0.872 µg/mL)

SMILES: CC(C)[C@@H](NC(=O)[C@H](N)Cc1c[nH]c2ccccc12)C(=O)N[C@@H](C(=O)N[C@H](Cc1c[nH]c2ccccc12)C(=O)N[C@@H](C(=O)N[C@H](Cc1c[nH]c2ccccc12)C(=O)N[C@H](CCCCN)C(=O)N[C@H](CCCCN)C(=O)N[C@H](CCCCN)C(N)=O)C(C)C)C(C)C [KSH66, wvvwvwkkk] (H-[dW][dV][dV][dW][dV][dW][dK][dK][dK]-NH2; N-terminus assumed)
- MIC VRE (E. faecalis) ATCC 51575 [1]: 0.63 µM (≈ 0.792 µg/mL)
- MIC MRAB (A. baumannii) ATCC BAA 1605 [2]: 1.25 µM (≈ 1.57 µg/mL)
- MIC MRPA (P. aeruginosa) CCARM 2180 [3]: >10 µM
- MIC MRSA (S. aureus) KCCM 40510 [4]: 1.25 µM (≈ 1.57 µg/mL)

SMILES: CC(C)[C@@H](NC(=O)[C@H](N)Cc1c[nH]c2ccccc12)C(=O)N[C@@H](C(=O)N[C@H](Cc1c[nH]c2ccccc12)C(=O)N[C@@H](C(=O)N[C@@H](C(=O)N[C@H](Cc1c[nH]c2ccccc12)C(=O)N[C@H](CCCCN)C(=O)N[C@H](CCCCN)C(=O)N[C@H](CCCCN)C(N)=O)C(C)C)C(C)C)C(C)C [KSH67, wvvwvvwkkk] (H-[dW][dV][dV][dW][dV][dV][dW][dK][dK][dK]-NH2; N-terminus assumed)
- MIC VRE (E. faecalis) ATCC 51575 [1]: 0.63 µM (≈ 0.855 µg/mL)
- MIC MRAB (A. baumannii) ATCC BAA 1605 [2]: 1.25 µM (≈ 1.7 µg/mL)
- MIC MRPA (P. aeruginosa) CCARM 2180 [3]: 5 µM (≈ 6.78 µg/mL)
- MIC MRSA (S. aureus) KCCM 40510 [4]: 0.63 µM (≈ 0.855 µg/mL)

SMILES: CC[C@@H](C)[C@@H](NC(=O)[C@@H](Cc1c[nH]c2ccccc12)NC(=O)[C@@H](CCCNC(=N)N)NC(=O)[C@@H](CCCNC(=N)N)NC(=O)[C@H](N)CCCNC(=N)N)C(=O)N[C@H](Cc1c[nH]c2ccccc12)C(=O)N[C@@H](C(=O)N[C@H](CC(C)C)C(=O)N[C@H](Cc1c[nH]c2ccccc12)C(=O)N[C@H](CCCCN)C(=O)N[C@H](CC(N)=O)C(N)=O)C(C)C [KSH68, rrrwiwvlwkn] (H-[dR][dR][dR][dW][dI][dW][dV][dL][dW][dK][dN]-NH2; N-terminus assumed)
- MIC VRE (E. faecalis) ATCC 51575 [1]: 1.25 µM (≈ 2.01 µg/mL)
- MIC MRAB (A. baumannii) ATCC BAA 1605 [2]: 0.63 µM (≈ 1.02 µg/mL)
- MIC MRPA (P. aeruginosa) CCARM 2180 [3]: 2.5 µM (≈ 4.03 µg/mL)
- MIC MRSA (S. aureus) KCCM 40510 [4]: 1.25 µM (≈ 2.01 µg/mL)

SMILES: CC[C@@H](C)[C@@H](NC(=O)[C@@H](Cc1c[nH]c2ccccc12)NC(=O)[C@@H](C)NC(=O)[C@@H](C)NC(=O)[C@H](N)Cc1c[nH]c2ccccc12)C(=O)NCC(=O)N[C@H](CC(C)C)C(=O)N[C@H](CCCNC(=N)N)C(=O)N[C@H](CCCNC(=N)N)C(=O)N[C@H](CCCNC(=N)N)C(N)=O [KSH69, waawiglrrr] (H-[dW][dA][dA][dW][dI]G[dL][dR][dR][dR]-NH2; N-terminus assumed)
- MIC VRE (E. faecalis) ATCC 51575 [1]: >10 µM
- MIC MRAB (A. baumannii) ATCC BAA 1605 [2]: 2.5 µM (≈ 3.21 µg/mL)
- MIC MRPA (P. aeruginosa) CCARM 2180 [3]: >10 µM
- MIC MRSA (S. aureus) KCCM 40510 [4]: >10 µM

SMILES: CC(C)[C@@H](NC(=O)[C@H](N)Cc1c[nH]c2ccccc12)C(=O)N[C@H](C)C(=O)N[C@H](Cc1c[nH]c2ccccc12)C(=O)N[C@H](C)C(=O)N[C@@H](C(=O)N[C@H](Cc1c[nH]c2ccccc12)C(=O)N[C@H](CCCNC(=N)N)C(=O)N[C@H](CCCNC(=N)N)C(=O)N[C@H](CCCNC(=N)N)C(N)=O)C(C)C [KSH71, wvawavwrrr] (H-[dW][dV][dA][dW][dA][dV][dW][dR][dR][dR]-NH2; N-terminus assumed)
- MIC VRE (E. faecalis) ATCC 51575 [1]: 2.5 µM (≈ 3.46 µg/mL)
- MIC MRAB (A. baumannii) ATCC BAA 1605 [2]: 1.25 µM (≈ 1.73 µg/mL)
- MIC MRPA (P. aeruginosa) CCARM 2180 [3]: >10 µM
- MIC MRSA (S. aureus) KCCM 40510 [4]: 5 µM (≈ 6.92 µg/mL)

SMILES: CC(C)[C@@H](NC(=O)[C@H](N)Cc1c[nH]c2ccccc12)C(=O)N[C@@H](C(=O)N[C@H](Cc1c[nH]c2ccccc12)C(=O)N[C@H](C)C(=O)N[C@H](C)C(=O)N[C@H](Cc1c[nH]c2ccccc12)C(=O)N[C@H](CCCNC(=N)N)C(=O)N[C@H](CCCNC(=N)N)C(=O)N[C@H](CCCNC(=N)N)C(N)=O)C(C)C [KSH72, wvvwaawrrr] (H-[dW][dV][dV][dW][dA][dA][dW][dR][dR][dR]-NH2; N-terminus assumed)
- MIC VRE (E. faecalis) ATCC 51575 [1]: 5 µM (≈ 6.92 µg/mL)
- MIC MRAB (A. baumannii) ATCC BAA 1605 [2]: 2.5 µM (≈ 3.46 µg/mL)
- MIC MRPA (P. aeruginosa) CCARM 2180 [3]: 10 µM (≈ 13.8 µg/mL)
- MIC MRSA (S. aureus) KCCM 40510 [4]: 2.5 µM (≈ 3.46 µg/mL)

SMILES: CC[C@@H](C)[C@@H](NC(=O)[C@@H](Cc1c[nH]c2ccccc12)NC(=O)[C@@H](CCCNC(=N)N)NC(=O)[C@@H](CCCNC(=N)N)NC(=O)[C@H](N)CCCNC(=N)N)C(=O)N[C@H](Cc1c[nH]c2ccccc12)C(=O)N[C@@H](C(=O)N[C@H](CC(C)C)C(=O)N[C@H](Cc1c[nH]c2ccccc12)C(N)=O)C(C)C [KSH73, rrrwiwvlw] (H-[dR][dR][dR][dW][dI][dW][dV][dL][dW]-NH2; N-terminus assumed)
- MIC VRE (E. faecalis) ATCC 51575 [1]: 1.25 µM (≈ 1.71 µg/mL)
- MIC MRAB (A. baumannii) ATCC BAA 1605 [2]: 2.5 µM (≈ 3.42 µg/mL)
- MIC MRPA (P. aeruginosa) CCARM 2180 [3]: 2.5 µM (≈ 3.42 µg/mL)
- MIC MRSA (S. aureus) KCCM 40510 [4]: 1.25 µM (≈ 1.71 µg/mL)

SMILES: CC[C@@H](C)[C@@H](NC(=O)[C@@H](Cc1c[nH]c2ccccc12)NC(=O)[C@@H](CCCNC(=N)N)NC(=O)[C@@H](CCCNC(=N)N)NC(=O)[C@H](N)CCCNC(=N)N)C(=O)N[C@H](Cc1c[nH]c2ccccc12)C(=O)N[C@H](C)C(=O)N[C@H](C)C(=O)N[C@H](Cc1c[nH]c2ccccc12)C(=O)N[C@H](CCCCN)C(N)=O [KSH74, rrrwiwaawk] (H-[dR][dR][dR][dW][dI][dW][dA][dA][dW][dK]-NH2; N-terminus assumed)
- MIC VRE (E. faecalis) ATCC 51575 [1]: >10 µM
- MIC MRAB (A. baumannii) ATCC BAA 1605 [2]: 2.5 µM (≈ 3.57 µg/mL)
- MIC MRPA (P. aeruginosa) CCARM 2180 [3]: >10 µM
- MIC MRSA (S. aureus) KCCM 40510 [4]: >10 µM

SMILES: CC[C@@H](C)[C@@H](NC(=O)[C@@H](Cc1c[nH]c2ccccc12)NC(=O)[C@@H](C)NC(=O)[C@@H](C)NC(=O)[C@H](N)Cc1c[nH]c2ccccc12)C(=O)NCC(=O)N[C@H](CC(C)C)C(=O)N[C@H](CCCNC(=N)N)C(=O)N[C@H](CCCCN)C(=O)N[C@H](CCCCN)C(=O)N[C@H](CCCCN)C(N)=O [KSH75, waawiglrkkk] (H-[dW][dA][dA][dW][dI]G[dL][dR][dK][dK][dK]-NH2; N-terminus assumed)
- MIC VRE (E. faecalis) ATCC 51575 [1]: >10 µM
- MIC MRAB (A. baumannii) ATCC BAA 1605 [2]: 2.5 µM (≈ 3.39 µg/mL)
- MIC MRPA (P. aeruginosa) CCARM 2180 [3]: >10 µM
- MIC MRSA (S. aureus) KCCM 40510 [4]: >10 µM
